# “And” between values parts separate entries of the source, which are not always exact repeats. Identical values can stand only once.
# Assays:
# [1] = clinical use, prior art; cited from earlier work
# [2] = acute toxicity test in rats; type: in vivo; settings: rat, in vivo
# Description: (§1) The acute toxicity test was carried out by oral, intraperitoneal and subcutaneous administration to 7- to 8-week old Sic-SD rats and Slc:ICr mice. The case of death was observed within 5 days from the start of the administration.
# Sic-SD rats = assay: acute toxicity test in rats; type: in vivo; settings: oral, intraperitoneal and subcutaneous
# Description: as §1
# [3] = acute toxicity test in mice; settings: mouse, in vivo
# Description: as §1
# uric acid level in serum = assay: phase I clinical test: uric acid level in serum of healthy adult men (enzymatic method); type: in vivo
# Description: Capsules containing 300 mg of the compound of the present invention, N-{3-[4"-(2",6"-dimethylheptyl)phenyl]butanoyl}ethanolamine, were administered to 5 healthy adult men for 7 days three times per day after meals. For comparison, a placebo was administered to two other healthy adult men. Thus, the phase I clinical test was conducted.
# […] With respect to the measured values, the significance test was conducted between the group to which the compound of the present invention was administered and the group to which the placebo was administered.
# In the above table, each value indicates the uric acid level (mg/dl) in serum, and A through G in the column of "Healthy man" represent the adult men to whom the medicine was administered.
# [4] = disclosed in Japanese Patent Laid-Open No. 210050/1986; cited from earlier work
compound,measurement,setting,value
Oc1ncnc2[nH]ncc12 [allopurinol],adverse effects,[1],"causes efflorescence, gastrointestinal disorders, liver troubles and hematogenic organ troubles"
"CC(C)CCCC(C)Cc1ccc(C(C)CC(=O)NCCO)cc1 (stereo not drawn) [compound of the present invention, N-{3-[4'-(2"",6""-dimethylheptyl)phenyl]butanoyl}ethanolamine]",LD50,"[2]; ip, female, intraperitoneal",572 mg/kg
same,LD50,"[2]; ip, male, intraperitoneal",1340 mg/kg
same,LD50,"[2]; po, female",1910 mg/kg
same,LD50,"[2]; po, male",4260 mg/kg
same,LD50,"[2]; sc, female, subcutaneous",6350 mg/kg
same,LD50,"[2]; sc, male, subcutaneous",> 8000 mg/kg
same,time of death from the start of the administration,Sic-SD rats,≤ 5 days
same,LD50,"[3]; ip, female, intraperitoneal",737 mg/kg
same,LD50,"[3]; ip, male, intraperitoneal",792 mg/kg
same,LD50,"[3]; po, female",4580 mg/kg
same,LD50,"[3]; po, male",> 2560 mg/kg
same,LD50,"[3]; sc, female, subcutaneous",> 5000 mg/kg
same,LD50,"[3]; sc, male, subcutaneous",> 5000 mg/kg
same,accumulation of the medicinal effect,uric acid level in serum; after stop of administration,not observed
same,uric acid level in serum when administration was stopped,uric acid level in serum; after stop of administration,promptly elevated to the value before the start of the administration
same,"average uric acid level in serum, 1st day","uric acid level in serum; average of men A-E, 1st day, before administration, placebo average 6.0",5.8 mg/dL
same,"average uric acid level in serum, 4th day","uric acid level in serum; average of men A-E, 4th day, 300 mg three times per day, marked *, placebo average 5.7",3.1 mg/dL
same,"average uric acid level in serum, 6th day","uric acid level in serum; average of men A-E, 6th day, 300 mg three times per day, marked *, placebo average 5.7",2.7 mg/dL
same,"average uric acid level in serum, 8th day","uric acid level in serum; average of men A-E, 8th day, 300 mg three times per day for 7 days, marked *, placebo average 5.8",3.2 mg/dL
same,"average uric acid level in serum, 11th day","uric acid level in serum; average of men A-E, 11th day, after 7 days of administration, placebo average 7.1",5.5 mg/dL
same,lowering in the uric acid level in serum,uric acid level in serum; fourth day,significant lowering in the uric acid level in serum was observed
same,"uric acid level in serum, 1st day","uric acid level in serum; individual healthy men A-E (one per line), 1st day, before administration, 300 mg capsules three times per day after meals, 7 days, listed as compound of present invention",4.9 mg/dL and 6.4 mg/dL and 5.9 mg/dL and 7.0 mg/dL and 4.7 mg/dL
same,"uric acid level in serum, 4th day","uric acid level in serum; individual healthy men A-E (one per line), 4th day, 300 mg capsules three times per day after meals, 7 days, listed as compound of present invention",8.5 mg/dL and 2.9 mg/dL and 2.6 mg/dL and 3.6 mg/dL and 2.8 mg/dL
same,"uric acid level in serum, 6th day","uric acid level in serum; individual healthy men A-E (one per line), 6th day, 300 mg capsules three times per day after meals, 7 days, listed as compound of present invention",3.0 mg/dL and 2.6 mg/dL and 2.4 mg/dL and 3.2 mg/dL and 2.5 mg/dL
same,"uric acid level in serum, 8th day","uric acid level in serum; individual healthy men A-E (one per line), 8th day, 300 mg capsules three times per day after meals, 7 days, listed as compound of present invention",3.2 mg/dL and 3.1 mg/dL and 4.0 mg/dL and 2.7 mg/dL
same,"uric acid level in serum, 11th day","uric acid level in serum; individual healthy men A-E (one per line), 11th day, after 7 days of 300 mg capsules three times per day after meals, listed as compound of present invention",4.8 mg/dL and 5.6 mg/dL and 7.2 mg/dL and 5.3 mg/dL
same,solubility in organic solvents,"solubility; anhydrous ethanol, ethyl acetate, ethanol, chloroform, acetonitrile and n-hexane",Highly soluble
same,solubility in water,solubility; water,substantially insoluble
same,anticholesterolemic action,[4],has an anticholesterolemic action

# — patent publication US4883821A, “Agent for treating hyperuricemia” (Eisai Co., Ltd., priority 1988, dated 1989)
